Reference: ChEMBL document CHEMBL1135352, “8-Anilinoimidazo[4,5-g]quinoline-7-carbonitriles as Src kinase inhibitors” (Bioorg Med Chem Lett, 2002)

Target: Proto-oncogene tyrosine-protein kinase Src (Rattus norvegicus, UniProt Q9WUD9)
Test: Inhibition of src kinase activity in Src transformed rat fibroblasts
Assay type: functional

Proto-oncogene tyrosine-protein kinase Src (Rattus norvegicus, UniProt Q9WUD9), sequence (Q9WUD9 2-536 limits assumed): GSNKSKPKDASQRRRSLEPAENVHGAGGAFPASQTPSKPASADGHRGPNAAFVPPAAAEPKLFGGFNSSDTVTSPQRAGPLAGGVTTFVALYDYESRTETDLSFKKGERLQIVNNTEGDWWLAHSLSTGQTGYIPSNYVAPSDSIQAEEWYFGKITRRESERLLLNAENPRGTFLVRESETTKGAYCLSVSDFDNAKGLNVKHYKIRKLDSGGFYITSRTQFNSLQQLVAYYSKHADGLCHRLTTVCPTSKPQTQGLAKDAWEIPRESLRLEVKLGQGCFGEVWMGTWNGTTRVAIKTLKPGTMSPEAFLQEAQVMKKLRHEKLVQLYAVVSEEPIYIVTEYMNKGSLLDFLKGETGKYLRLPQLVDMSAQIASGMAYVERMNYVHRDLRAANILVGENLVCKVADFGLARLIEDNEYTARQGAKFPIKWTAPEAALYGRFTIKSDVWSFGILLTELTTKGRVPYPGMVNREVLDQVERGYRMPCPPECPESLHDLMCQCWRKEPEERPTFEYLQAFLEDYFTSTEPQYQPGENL

Row | Structure (SMILES) | IC50
1 | COc1cc(Nc2c(C#N)cnc3cc4[nH]cnc4cc23)cc(OC)c1OC | > 10 µM
2 | COc1cc(Nc2c(C#N)cnc3cc4nc(NCCN5CCOCC5)[nH]c4cc23)cc(OC)c1OC | > 10 µM
3 | COc1cc(Nc2c(C#N)cnc3cc4c(cc23)ncn4CCN2CCOCC2)c(Br)cc1Cl | 0.67 µM
4 | COc1cc(Nc2c(C#N)cnc3cc4[nH]c(CN5CCOCC5)nc4cc23)cc(OC)c1OC | > 10 µM
5 | COc1cc(Nc2c(C#N)cnc3cc4c(cc23)ncn4CCN2CCOCC2)cc(OC)c1OC | > 10 µM
6 | COc1ccc(Cl)c(Nc2c(C#N)cnc3cc4[nH]cnc4cc23)c1 | 10.5 µM

Results, then the compound that gave them:

Row | IC50 | Structure (SMILES)
7 | 10.1 µM | N#Cc1cnc2cc3[nH]cnc3cc2c1Nc1ccc(Cl)cc1Br
8 | 2.8 µM | COc1cc(Nc2c(C#N)cnc3cc4[nH]cnc4cc23)c(Br)cc1Cl
9 | 3.3 µM | COc1ccc(C)c(Nc2c(C#N)cnc3cc4c(cc23)ncn4CCN2CCOCC2)c1
10 | > 10 µM | COc1ccc(C)c(Nc2c(C#N)cnc3cc4[nH]c(NCCN5CCOCC5)nc4cc23)c1
11 | 3.9 µM | COc1cc(Nc2c(C#N)cnc3cc4c(cc23)ncn4CCN2CCOCC2)c(C)cc1Cl
12 | 1.2 µM | COc1ccc(Cl)c(Nc2c(C#N)cnc3cc4c(cc23)ncn4CCN2CCOCC2)c1

Target: Receptor tyrosine-protein kinase erbB-2 (Homo sapiens, UniProt P04626)
Test: Inhibition of ERBB2 receptor kinase

Receptor tyrosine-protein kinase erbB-2, sequence (P04626 whole entry): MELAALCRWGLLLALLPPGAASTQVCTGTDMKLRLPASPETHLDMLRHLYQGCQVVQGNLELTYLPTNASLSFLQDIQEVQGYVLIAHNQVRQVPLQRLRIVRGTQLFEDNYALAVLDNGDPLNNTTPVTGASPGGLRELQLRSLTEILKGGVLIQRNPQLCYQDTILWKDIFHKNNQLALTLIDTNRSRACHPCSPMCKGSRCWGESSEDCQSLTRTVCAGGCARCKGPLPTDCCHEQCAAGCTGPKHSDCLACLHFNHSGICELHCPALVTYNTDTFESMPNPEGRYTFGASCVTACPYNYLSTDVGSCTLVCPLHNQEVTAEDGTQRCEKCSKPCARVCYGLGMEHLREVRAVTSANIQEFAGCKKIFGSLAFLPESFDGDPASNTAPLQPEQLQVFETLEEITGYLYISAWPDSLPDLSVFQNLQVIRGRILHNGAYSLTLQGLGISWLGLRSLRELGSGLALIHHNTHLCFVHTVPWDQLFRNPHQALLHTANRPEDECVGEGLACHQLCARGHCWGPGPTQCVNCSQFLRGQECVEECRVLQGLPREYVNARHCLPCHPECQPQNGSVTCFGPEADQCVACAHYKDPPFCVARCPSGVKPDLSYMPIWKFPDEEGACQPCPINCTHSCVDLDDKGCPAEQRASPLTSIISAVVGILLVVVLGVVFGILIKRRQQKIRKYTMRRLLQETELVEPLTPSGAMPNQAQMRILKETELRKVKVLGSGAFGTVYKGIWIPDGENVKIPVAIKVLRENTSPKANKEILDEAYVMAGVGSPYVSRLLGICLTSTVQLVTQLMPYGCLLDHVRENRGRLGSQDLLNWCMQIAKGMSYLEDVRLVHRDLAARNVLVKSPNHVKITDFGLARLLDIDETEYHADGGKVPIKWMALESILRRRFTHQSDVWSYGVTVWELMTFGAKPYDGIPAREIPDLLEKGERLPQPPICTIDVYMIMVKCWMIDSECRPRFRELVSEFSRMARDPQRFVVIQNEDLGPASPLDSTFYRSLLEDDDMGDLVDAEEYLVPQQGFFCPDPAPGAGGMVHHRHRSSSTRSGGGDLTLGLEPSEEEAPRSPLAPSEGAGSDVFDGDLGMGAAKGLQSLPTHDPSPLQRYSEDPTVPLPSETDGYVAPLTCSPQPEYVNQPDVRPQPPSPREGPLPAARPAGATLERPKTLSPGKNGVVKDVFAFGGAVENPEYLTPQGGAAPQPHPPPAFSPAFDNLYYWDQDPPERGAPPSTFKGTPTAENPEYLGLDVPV

Row | Structure (SMILES) | IC50
13 | COc1cc(Nc2c(C#N)cnc3cc4[nH]cnc4cc23)cc(OC)c1OC | > 1000 nM
14 | COc1cc(Nc2c(C#N)cnc3cc4nc(NCCN5CCOCC5)[nH]c4cc23)cc(OC)c1OC | > 1000 nM
15 | COc1cc(Nc2c(C#N)cnc3cc4c(cc23)ncn4CCN2CCOCC2)c(Br)cc1Cl | > 1000 nM
16 | COc1cc(Nc2c(C#N)cnc3cc4[nH]c(CN5CCOCC5)nc4cc23)cc(OC)c1OC | > 1000 nM
17 | COc1cc(Nc2c(C#N)cnc3cc4c(cc23)ncn4CCN2CCOCC2)cc(OC)c1OC | > 1000 nM
18 | COc1ccc(Cl)c(Nc2c(C#N)cnc3cc4[nH]cnc4cc23)c1 | > 1000 nM

Results, then the compound that gave them:

Row | IC50 | Structure (SMILES)
19 | > 1000 nM | N#Cc1cnc2cc3[nH]cnc3cc2c1Nc1ccc(Cl)cc1Br
20 | > 1000 nM | COc1cc(Nc2c(C#N)cnc3cc4[nH]cnc4cc23)c(Br)cc1Cl
21 | > 1000 nM | COc1ccc(C)c(Nc2c(C#N)cnc3cc4c(cc23)ncn4CCN2CCOCC2)c1
22 | > 1000 nM | COc1ccc(C)c(Nc2c(C#N)cnc3cc4[nH]c(NCCN5CCOCC5)nc4cc23)c1
23 | > 1000 nM | COc1cc(Nc2c(C#N)cnc3cc4c(cc23)ncn4CCN2CCOCC2)c(C)cc1Cl
24 | > 1000 nM | COc1ccc(Cl)c(Nc2c(C#N)cnc3cc4c(cc23)ncn4CCN2CCOCC2)c1

Target: Proto-oncogene tyrosine-protein kinase Src (Homo sapiens, UniProt P12931)
Test: Inhibition of Src protein tyrosine kinase activity

Proto-oncogene tyrosine-protein kinase Src (Homo sapiens, UniProt P12931), sequence (P12931 2-536 limits assumed): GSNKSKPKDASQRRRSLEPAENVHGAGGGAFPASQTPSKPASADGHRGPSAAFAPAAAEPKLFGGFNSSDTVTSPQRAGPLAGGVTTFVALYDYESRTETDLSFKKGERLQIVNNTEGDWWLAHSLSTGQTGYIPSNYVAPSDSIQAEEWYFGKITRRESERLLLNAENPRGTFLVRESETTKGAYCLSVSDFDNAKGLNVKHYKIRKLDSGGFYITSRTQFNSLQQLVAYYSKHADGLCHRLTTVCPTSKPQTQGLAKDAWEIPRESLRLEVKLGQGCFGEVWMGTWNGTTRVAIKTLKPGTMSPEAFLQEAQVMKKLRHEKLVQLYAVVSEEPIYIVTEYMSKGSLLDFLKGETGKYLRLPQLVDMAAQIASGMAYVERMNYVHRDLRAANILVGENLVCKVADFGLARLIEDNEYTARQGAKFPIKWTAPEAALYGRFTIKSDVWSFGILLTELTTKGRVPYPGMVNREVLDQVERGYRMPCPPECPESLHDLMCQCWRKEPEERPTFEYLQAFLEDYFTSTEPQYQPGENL

Row | Structure (SMILES) | IC50
25 | COc1cc(Nc2c(C#N)cnc3cc4[nH]cnc4cc23)cc(OC)c1OC | 330 nM
26 | COc1cc(Nc2c(C#N)cnc3cc4nc(NCCN5CCOCC5)[nH]c4cc23)cc(OC)c1OC | 180 nM
27 | COc1cc(Nc2c(C#N)cnc3cc4c(cc23)ncn4CCN2CCOCC2)c(Br)cc1Cl | 9 nM
28 | COc1cc(Nc2c(C#N)cnc3cc4[nH]c(CN5CCOCC5)nc4cc23)cc(OC)c1OC | 620 nM
29 | COc1cc(Nc2c(C#N)cnc3cc4c(cc23)ncn4CCN2CCOCC2)cc(OC)c1OC | 200 nM
30 | COc1ccc(Cl)c(Nc2c(C#N)cnc3cc4[nH]cnc4cc23)c1 | 30 nM

Results, then the compound that gave them:

Row | IC50 | Structure (SMILES)
31 | 75 nM | N#Cc1cnc2cc3[nH]cnc3cc2c1Nc1ccc(Cl)cc1Br
32 | 16 nM | COc1cc(Nc2c(C#N)cnc3cc4[nH]cnc4cc23)c(Br)cc1Cl
33 | 120 nM | COc1ccc(C)c(Nc2c(C#N)cnc3cc4c(cc23)ncn4CCN2CCOCC2)c1
34 | 67 nM | COc1ccc(C)c(Nc2c(C#N)cnc3cc4[nH]c(NCCN5CCOCC5)nc4cc23)c1
35 | 29 nM | COc1cc(Nc2c(C#N)cnc3cc4c(cc23)ncn4CCN2CCOCC2)c(C)cc1Cl
36 | 43 nM | COc1ccc(Cl)c(Nc2c(C#N)cnc3cc4c(cc23)ncn4CCN2CCOCC2)c1

Target: not listed separately
Test: Inhibition of Dual specificity mitogen-activated protein kinase kinase MEK

Row | Structure (SMILES) | IC50
37 | COc1cc(Nc2c(C#N)cnc3cc4[nH]cnc4cc23)cc(OC)c1OC | > 1000 nM
38 | COc1cc(Nc2c(C#N)cnc3cc4c(cc23)ncn4CCN2CCOCC2)c(Br)cc1Cl | > 1000 nM
39 | COc1cc(Nc2c(C#N)cnc3cc4[nH]c(CN5CCOCC5)nc4cc23)cc(OC)c1OC | > 1000 nM
40 | COc1cc(Nc2c(C#N)cnc3cc4c(cc23)ncn4CCN2CCOCC2)cc(OC)c1OC | > 1000 nM
41 | COc1ccc(Cl)c(Nc2c(C#N)cnc3cc4[nH]cnc4cc23)c1 | > 1000 nM

Results, then the compound that gave them:

Row | IC50 | Structure (SMILES)
42 | > 1000 nM | N#Cc1cnc2cc3[nH]cnc3cc2c1Nc1ccc(Cl)cc1Br
43 | > 1000 nM | COc1cc(Nc2c(C#N)cnc3cc4[nH]cnc4cc23)c(Br)cc1Cl
44 | > 1000 nM | COc1ccc(C)c(Nc2c(C#N)cnc3cc4c(cc23)ncn4CCN2CCOCC2)c1
45 | > 1000 nM | COc1ccc(C)c(Nc2c(C#N)cnc3cc4[nH]c(NCCN5CCOCC5)nc4cc23)c1
46 | > 1000 nM | COc1cc(Nc2c(C#N)cnc3cc4c(cc23)ncn4CCN2CCOCC2)c(C)cc1Cl
47 | > 1000 nM | COc1ccc(Cl)c(Nc2c(C#N)cnc3cc4c(cc23)ncn4CCN2CCOCC2)c1

Target: Epidermal growth factor receptor (Homo sapiens, UniProt P00533)
Test: Inhibition of Epidermal growth factor receptor kinase

Epidermal growth factor receptor, sequence (P00533 whole entry): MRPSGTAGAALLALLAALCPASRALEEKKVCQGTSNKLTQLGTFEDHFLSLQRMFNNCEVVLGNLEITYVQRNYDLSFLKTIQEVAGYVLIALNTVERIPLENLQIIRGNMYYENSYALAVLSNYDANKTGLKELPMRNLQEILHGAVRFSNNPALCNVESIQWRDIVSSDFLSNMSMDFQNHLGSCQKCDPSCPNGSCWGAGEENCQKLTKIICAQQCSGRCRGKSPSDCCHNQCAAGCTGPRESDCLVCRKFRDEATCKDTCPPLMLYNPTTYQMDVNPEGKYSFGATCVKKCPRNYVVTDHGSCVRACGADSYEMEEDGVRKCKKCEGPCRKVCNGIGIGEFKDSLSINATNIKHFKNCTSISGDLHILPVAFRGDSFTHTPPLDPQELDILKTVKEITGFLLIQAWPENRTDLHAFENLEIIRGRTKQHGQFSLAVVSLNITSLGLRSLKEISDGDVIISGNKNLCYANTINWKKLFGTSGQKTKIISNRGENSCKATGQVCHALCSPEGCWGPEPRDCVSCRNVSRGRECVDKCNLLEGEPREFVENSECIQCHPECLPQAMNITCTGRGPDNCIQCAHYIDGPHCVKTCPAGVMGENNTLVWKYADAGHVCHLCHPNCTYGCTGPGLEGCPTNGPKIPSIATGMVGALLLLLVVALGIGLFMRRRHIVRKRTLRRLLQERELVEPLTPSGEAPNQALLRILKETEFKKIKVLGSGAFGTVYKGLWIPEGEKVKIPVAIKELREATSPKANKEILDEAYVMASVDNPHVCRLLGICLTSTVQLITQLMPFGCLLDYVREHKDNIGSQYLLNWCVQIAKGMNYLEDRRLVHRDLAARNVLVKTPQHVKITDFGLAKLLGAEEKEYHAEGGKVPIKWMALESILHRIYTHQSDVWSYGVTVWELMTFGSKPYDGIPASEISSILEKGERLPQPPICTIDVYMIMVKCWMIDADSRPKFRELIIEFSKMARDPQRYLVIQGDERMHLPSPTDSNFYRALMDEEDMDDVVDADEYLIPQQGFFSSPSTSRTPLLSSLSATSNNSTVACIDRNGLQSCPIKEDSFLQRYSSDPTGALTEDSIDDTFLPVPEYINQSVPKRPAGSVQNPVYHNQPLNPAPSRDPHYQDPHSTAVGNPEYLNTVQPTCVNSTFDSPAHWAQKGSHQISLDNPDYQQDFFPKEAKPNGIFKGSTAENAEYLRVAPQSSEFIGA

Row | Structure (SMILES) | IC50
48 | COc1cc(Nc2c(C#N)cnc3cc4[nH]cnc4cc23)cc(OC)c1OC | > 1000 nM
49 | COc1cc(Nc2c(C#N)cnc3cc4c(cc23)ncn4CCN2CCOCC2)c(Br)cc1Cl | > 1000 nM
50 | COc1cc(Nc2c(C#N)cnc3cc4[nH]c(CN5CCOCC5)nc4cc23)cc(OC)c1OC | > 1000 nM
51 | COc1cc(Nc2c(C#N)cnc3cc4c(cc23)ncn4CCN2CCOCC2)cc(OC)c1OC | > 1000 nM
52 | COc1ccc(Cl)c(Nc2c(C#N)cnc3cc4[nH]cnc4cc23)c1 | > 1000 nM

Continued, values first:

Row | IC50 | Structure (SMILES)
53 | > 1000 nM | N#Cc1cnc2cc3[nH]cnc3cc2c1Nc1ccc(Cl)cc1Br
54 | > 1000 nM | COc1cc(Nc2c(C#N)cnc3cc4[nH]cnc4cc23)c(Br)cc1Cl
55 | > 1000 nM | COc1ccc(C)c(Nc2c(C#N)cnc3cc4c(cc23)ncn4CCN2CCOCC2)c1
56 | > 1000 nM | COc1ccc(C)c(Nc2c(C#N)cnc3cc4[nH]c(NCCN5CCOCC5)nc4cc23)c1
57 | > 1000 nM | COc1cc(Nc2c(C#N)cnc3cc4c(cc23)ncn4CCN2CCOCC2)c(C)cc1Cl
58 | > 1000 nM | COc1ccc(Cl)c(Nc2c(C#N)cnc3cc4c(cc23)ncn4CCN2CCOCC2)c1
